According to ChEMBL document CHEMBL4507276 (2021):

What was measured:
Settings in all cases: Compound concentration 1000.0 nM
[1] = molecular target: Serine/threonine-protein kinase Nek11 (Homo sapiens) (UniProt Q8NG66)
[2] = molecular target: T1, Megakaryocyte-associated tyrosine-protein kinase (Homo sapiens) (UniProt P42679)
T1 sequence (whole entry): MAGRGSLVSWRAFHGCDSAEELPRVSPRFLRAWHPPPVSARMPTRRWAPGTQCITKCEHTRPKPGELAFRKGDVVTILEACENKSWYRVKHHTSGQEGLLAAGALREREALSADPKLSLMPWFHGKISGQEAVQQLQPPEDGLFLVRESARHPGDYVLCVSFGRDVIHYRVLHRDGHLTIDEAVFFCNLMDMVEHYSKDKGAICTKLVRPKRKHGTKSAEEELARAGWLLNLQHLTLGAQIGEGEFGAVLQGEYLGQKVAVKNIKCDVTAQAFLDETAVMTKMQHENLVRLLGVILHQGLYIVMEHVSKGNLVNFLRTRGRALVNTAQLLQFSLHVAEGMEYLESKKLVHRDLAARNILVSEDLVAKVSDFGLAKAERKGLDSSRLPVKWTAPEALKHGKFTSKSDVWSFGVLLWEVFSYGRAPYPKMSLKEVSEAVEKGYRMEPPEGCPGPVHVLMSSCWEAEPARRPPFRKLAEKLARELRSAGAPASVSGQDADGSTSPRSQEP

[3] = molecular target: Cyclin-dependent kinase 13 (Homo sapiens) (UniProt Q14004)
[4] = molecular target: Calcium/calmodulin-dependent protein kinase type II subunit delta (Homo sapiens) (UniProt Q13557)
[5] = molecular target: T2, Serine/threonine-protein kinase Nek1 (Homo sapiens) (UniProt Q96PY6)
T2 sequence (whole entry): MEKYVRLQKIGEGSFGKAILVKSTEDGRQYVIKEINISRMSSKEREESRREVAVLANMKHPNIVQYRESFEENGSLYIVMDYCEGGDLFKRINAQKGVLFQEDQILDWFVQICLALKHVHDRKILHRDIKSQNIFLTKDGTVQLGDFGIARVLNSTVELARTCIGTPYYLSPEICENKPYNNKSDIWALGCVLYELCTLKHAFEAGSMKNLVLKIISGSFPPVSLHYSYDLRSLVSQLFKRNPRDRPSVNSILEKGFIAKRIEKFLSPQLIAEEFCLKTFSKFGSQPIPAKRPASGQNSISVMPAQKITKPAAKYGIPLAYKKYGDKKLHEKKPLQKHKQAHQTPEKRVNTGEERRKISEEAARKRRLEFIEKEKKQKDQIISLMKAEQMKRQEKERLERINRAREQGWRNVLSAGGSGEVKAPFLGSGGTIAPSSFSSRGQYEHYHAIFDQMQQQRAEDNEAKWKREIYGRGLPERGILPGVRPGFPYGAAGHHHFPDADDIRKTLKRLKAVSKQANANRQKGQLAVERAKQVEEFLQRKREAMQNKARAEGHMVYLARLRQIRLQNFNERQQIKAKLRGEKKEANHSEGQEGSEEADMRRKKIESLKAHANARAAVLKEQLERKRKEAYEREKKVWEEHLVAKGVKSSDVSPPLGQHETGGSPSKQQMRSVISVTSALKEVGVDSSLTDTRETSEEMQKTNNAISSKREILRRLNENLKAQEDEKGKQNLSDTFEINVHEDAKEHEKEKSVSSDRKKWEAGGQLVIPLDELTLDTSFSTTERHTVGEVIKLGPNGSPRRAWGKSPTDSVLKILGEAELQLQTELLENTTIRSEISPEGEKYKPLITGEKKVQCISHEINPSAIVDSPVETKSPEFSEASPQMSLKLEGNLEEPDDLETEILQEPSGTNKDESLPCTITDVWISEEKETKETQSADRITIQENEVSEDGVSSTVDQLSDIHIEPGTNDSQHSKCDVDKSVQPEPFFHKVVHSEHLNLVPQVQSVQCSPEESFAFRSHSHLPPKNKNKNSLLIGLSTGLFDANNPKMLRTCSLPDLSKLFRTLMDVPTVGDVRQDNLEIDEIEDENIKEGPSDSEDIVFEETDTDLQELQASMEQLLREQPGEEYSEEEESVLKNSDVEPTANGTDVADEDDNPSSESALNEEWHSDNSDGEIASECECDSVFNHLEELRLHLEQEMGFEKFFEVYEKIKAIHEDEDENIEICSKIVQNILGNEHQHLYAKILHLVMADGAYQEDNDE

[6] = molecular target: Ribosomal protein S6 kinase alpha-5 (Homo sapiens) (UniProt O75582)
[7] = molecular target: Serine/threonine-protein kinase MRCK alpha (Homo sapiens) (UniProt Q5VT25)
[8] = molecular target: T3, Serine/threonine-protein kinase D3 (Homo sapiens) (UniProt O94806)
T3 sequence (whole entry): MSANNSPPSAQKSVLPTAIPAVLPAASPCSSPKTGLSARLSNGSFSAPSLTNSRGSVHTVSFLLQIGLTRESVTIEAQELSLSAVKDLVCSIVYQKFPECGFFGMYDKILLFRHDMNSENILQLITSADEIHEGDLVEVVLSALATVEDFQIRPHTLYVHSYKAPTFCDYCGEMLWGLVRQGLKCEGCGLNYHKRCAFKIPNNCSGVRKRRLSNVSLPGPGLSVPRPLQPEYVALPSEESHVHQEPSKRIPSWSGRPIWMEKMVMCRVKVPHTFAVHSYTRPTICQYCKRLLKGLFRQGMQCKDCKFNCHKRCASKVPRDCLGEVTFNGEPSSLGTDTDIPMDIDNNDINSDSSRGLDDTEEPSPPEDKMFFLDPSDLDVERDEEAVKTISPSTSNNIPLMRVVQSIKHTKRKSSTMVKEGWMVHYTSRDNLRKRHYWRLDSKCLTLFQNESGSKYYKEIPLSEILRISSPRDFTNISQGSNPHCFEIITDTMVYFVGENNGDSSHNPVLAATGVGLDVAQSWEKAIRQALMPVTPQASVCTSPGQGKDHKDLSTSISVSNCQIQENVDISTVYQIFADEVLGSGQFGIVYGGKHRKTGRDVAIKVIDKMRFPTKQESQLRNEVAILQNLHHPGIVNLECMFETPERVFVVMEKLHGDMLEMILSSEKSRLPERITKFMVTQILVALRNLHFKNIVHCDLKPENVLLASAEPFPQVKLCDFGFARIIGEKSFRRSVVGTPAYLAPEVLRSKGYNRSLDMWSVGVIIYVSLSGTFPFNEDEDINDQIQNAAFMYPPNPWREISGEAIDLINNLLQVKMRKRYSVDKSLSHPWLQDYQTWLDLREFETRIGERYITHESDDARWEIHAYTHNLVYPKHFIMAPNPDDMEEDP

[9] = system: Phosphatidylinositol 4,5-bisphosphate 3-kinase catalytic subunit alpha isoform (Homo sapiens), P42336 [H1047L]

Measured: residual activity

Sequence of Cyclin-dependent kinase 13 (Homo sapiens) (Q14004 whole entry, looked up): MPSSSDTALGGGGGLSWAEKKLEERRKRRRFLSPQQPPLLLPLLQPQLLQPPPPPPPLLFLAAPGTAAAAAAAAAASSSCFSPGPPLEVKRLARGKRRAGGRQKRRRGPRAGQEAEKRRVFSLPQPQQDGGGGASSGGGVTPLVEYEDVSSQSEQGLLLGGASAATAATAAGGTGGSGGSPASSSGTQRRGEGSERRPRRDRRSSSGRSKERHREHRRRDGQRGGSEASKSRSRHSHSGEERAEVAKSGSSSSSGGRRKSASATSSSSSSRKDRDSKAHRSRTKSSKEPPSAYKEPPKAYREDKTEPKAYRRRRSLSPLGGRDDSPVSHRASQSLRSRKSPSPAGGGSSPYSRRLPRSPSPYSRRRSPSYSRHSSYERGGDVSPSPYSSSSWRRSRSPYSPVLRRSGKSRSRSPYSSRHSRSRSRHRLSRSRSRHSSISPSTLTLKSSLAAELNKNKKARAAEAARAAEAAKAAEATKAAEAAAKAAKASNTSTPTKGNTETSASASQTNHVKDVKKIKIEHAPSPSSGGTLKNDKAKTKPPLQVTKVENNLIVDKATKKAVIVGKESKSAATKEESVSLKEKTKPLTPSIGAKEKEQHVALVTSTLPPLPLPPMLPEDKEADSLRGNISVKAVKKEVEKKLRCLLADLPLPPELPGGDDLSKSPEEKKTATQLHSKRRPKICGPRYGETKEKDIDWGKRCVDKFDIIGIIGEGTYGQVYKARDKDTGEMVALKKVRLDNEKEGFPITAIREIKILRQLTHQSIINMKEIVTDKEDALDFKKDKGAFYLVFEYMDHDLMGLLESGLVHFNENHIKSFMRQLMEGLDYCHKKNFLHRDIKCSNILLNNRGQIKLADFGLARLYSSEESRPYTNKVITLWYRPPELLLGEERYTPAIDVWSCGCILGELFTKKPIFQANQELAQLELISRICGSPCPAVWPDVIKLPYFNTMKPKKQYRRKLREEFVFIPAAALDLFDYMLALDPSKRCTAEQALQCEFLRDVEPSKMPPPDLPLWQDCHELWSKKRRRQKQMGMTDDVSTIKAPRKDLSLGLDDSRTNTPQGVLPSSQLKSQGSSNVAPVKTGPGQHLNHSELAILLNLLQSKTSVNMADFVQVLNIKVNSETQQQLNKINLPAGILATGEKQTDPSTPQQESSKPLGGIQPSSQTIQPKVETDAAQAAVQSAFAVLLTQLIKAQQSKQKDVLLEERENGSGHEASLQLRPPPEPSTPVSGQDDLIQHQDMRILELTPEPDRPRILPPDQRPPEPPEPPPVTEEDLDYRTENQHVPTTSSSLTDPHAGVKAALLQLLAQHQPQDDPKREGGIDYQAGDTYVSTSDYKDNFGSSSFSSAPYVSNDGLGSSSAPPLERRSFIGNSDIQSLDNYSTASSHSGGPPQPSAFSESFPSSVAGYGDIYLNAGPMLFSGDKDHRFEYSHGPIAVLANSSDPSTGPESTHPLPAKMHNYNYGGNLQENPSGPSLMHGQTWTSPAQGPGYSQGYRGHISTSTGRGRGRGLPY
Sequence of Phosphatidylinositol 4,5-bisphosphate 3-kinase catalytic subunit alpha isoform (Homo sapiens), P42336 [H1047L] (P42336 whole entry H1047L, canonical isoform): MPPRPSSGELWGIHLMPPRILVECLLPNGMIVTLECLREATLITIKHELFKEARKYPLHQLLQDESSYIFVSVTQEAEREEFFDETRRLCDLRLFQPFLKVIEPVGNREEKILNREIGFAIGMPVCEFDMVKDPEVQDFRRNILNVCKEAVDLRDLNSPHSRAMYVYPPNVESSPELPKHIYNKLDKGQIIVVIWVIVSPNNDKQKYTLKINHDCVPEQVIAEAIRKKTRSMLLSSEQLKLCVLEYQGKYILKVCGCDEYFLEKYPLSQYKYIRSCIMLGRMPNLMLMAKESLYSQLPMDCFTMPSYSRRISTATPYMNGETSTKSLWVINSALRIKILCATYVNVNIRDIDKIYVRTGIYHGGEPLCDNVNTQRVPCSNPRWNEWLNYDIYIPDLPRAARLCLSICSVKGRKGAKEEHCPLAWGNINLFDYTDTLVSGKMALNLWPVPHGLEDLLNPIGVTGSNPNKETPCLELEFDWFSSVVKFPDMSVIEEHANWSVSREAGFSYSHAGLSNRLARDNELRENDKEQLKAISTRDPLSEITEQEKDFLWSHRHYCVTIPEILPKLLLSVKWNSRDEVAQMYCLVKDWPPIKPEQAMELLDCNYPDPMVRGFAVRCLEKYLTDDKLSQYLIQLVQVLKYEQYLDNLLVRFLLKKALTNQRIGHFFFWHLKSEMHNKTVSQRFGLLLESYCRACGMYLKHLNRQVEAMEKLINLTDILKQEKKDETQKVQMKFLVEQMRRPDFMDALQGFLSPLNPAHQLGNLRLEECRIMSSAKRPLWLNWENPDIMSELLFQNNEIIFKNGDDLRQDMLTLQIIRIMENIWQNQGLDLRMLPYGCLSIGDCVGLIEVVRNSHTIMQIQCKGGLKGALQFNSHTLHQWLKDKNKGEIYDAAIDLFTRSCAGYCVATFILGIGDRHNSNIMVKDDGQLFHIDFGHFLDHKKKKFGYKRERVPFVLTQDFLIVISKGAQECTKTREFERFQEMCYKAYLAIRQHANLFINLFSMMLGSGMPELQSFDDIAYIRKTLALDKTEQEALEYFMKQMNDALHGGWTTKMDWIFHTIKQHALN
Sequence of Serine/threonine-protein kinase MRCK alpha (Homo sapiens) (Q5VT25 whole entry): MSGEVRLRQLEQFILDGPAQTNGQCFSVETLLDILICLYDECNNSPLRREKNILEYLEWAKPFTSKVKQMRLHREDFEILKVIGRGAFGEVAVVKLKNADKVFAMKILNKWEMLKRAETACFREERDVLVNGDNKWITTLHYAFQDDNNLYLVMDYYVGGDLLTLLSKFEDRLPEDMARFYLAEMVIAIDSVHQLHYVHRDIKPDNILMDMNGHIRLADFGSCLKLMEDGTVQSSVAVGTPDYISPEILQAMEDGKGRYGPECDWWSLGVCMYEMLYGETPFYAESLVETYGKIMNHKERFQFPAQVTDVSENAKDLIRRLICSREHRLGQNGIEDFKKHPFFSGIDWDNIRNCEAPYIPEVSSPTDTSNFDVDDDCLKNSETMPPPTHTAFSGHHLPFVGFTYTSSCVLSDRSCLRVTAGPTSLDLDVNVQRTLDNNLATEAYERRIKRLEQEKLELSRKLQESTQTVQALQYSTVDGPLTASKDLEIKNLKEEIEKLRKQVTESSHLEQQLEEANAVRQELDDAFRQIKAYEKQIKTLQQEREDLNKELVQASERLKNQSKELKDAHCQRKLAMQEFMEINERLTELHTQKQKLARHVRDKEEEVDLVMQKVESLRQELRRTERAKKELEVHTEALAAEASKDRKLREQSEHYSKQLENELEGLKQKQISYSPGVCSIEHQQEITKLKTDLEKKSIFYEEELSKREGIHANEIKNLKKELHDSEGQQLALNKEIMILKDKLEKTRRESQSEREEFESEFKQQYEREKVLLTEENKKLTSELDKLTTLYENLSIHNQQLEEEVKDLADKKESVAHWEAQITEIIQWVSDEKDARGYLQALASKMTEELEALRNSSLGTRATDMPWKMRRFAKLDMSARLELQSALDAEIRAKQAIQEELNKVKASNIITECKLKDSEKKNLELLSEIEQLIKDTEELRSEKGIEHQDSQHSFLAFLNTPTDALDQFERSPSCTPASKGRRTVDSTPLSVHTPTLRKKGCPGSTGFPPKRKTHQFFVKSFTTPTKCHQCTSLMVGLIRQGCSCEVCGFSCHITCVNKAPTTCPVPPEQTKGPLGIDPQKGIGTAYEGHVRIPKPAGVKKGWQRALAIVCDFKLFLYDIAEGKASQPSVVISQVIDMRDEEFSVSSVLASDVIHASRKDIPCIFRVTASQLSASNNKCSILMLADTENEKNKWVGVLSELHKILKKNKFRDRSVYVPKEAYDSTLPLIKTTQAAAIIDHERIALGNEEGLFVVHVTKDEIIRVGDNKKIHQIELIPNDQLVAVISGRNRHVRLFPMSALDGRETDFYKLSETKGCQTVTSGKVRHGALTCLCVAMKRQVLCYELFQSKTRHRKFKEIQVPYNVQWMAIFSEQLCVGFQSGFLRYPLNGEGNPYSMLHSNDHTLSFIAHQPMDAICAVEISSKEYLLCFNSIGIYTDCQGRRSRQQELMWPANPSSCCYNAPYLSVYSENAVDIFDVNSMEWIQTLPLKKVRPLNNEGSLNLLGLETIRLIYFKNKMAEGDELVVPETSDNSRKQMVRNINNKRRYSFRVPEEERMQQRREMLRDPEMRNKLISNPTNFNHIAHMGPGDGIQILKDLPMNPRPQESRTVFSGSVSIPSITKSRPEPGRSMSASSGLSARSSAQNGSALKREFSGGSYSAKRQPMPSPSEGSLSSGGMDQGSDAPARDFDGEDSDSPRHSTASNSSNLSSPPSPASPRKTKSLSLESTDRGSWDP
Sequence of Serine/threonine-protein kinase Nek11 (Homo sapiens) (Q8NG66 whole entry): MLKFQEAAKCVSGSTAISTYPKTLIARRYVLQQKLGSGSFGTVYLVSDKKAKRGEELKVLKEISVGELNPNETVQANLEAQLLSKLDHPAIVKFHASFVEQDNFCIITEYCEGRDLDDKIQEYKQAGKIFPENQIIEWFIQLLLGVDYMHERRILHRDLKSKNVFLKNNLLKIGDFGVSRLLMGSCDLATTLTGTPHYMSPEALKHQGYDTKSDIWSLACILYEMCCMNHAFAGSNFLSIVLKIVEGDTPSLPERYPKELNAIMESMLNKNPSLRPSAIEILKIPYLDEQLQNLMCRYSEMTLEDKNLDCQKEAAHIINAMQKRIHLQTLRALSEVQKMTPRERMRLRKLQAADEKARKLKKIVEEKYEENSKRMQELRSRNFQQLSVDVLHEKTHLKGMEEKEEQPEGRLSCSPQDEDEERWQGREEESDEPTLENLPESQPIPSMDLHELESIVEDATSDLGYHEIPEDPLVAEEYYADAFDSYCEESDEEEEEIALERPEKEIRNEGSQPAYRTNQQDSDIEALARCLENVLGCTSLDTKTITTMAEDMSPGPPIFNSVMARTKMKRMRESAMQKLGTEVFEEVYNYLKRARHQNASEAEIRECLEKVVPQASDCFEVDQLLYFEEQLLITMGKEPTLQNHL

CN(C)C(=O)Cn1cc(-c2nc(C3(c4ccc(-c5cnc(N)nc5)cc4)CC3)no2)cn1 [BI 0153]
inactive: [1] 90% | [2] 77% | [3] 91% | [4] 99% | [5] 100% | [6] 98% | [7] 100% | [8] 92% | [9] 73%

CN(C)C(=O)Cn1cc(-c2nc([C@@](C)(c3ccc(-c4cnc(N)nc4)cc3)C3CC3)no2)cn1 [BI 665915]
inactive: [1] 100% | [2] 77% | [3] 83% | [4] 100% | [5] 100% | [6] 93% | [7] 100% | [8] 100% | [9] 100%
